Experimental data reported in patent US20130267494A1, “1,4-OXAZEPANE DERIVATIVES” (priority 2010, published 2013).
Where a name gives a salt, the structure may show the parent alone. Read-outs that look alike come from different tables or passages of the source.

What was measured:
Type in all cases: cell-based
[1] = biological target: T1, human serotonin transporter (Homo sapiens, UniProt P31645); experiment: Inhibitory action on human serotonin transporter ([3H]-5-hydroxytryptamine uptake in CHO cells); conditions: compound 1 μM, relative to inhibitory activity of 10 μM Paroxetine as 100%; for inhibition at 1 µM: CHO, read-out: inhibitory rate (%)
T1 construct: expressed in transfected cells
Procedure, shortened: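 CHO-K1 cells stably expressing human SERT, plated overnight, took up [3H]-5-HT (diluted to 200 nM before a 1:10 addition) for 20 min in HEPES-buffered saline with glucose and 0.5% BSA; radioactivity counted by scintillation. Compounds at 10 μM or 1 μM, activity expressed relative to 10 μM paroxetine set as 100%.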

[2] = biological target: T2, human norepinephrine transporter (Homo sapiens, UniProt P23975); experiment: Inhibitory action on human norepinephrine transporter ([3H]-norepinephrine uptake in CHO cells); conditions: relative to inhibitory activity of 10 μM DMI as 100%; for inhibition at 1 µM: CHO
T2 construct: expressed in transfected cells
Procedure, shortened: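 Stably transfected CHO-K1 cells plated overnight, then given test compound and [3H]-norepinephrine (20 nM final, from 200 nM) in HEPES-buffered saline with 0.5% BSA for 45 min. After PBS washes, retained radioactivity counted by scintillation. Inhibition at 10 μM or 1 μM compound expressed relative to 10 μM DMI as 100%.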

[3] = biological target: T3, human dopamine transporter (Homo sapiens, UniProt Q01959); experiment: Inhibitory action on human dopamine transporter ([3H]-dopamine uptake in CHO cells); conditions: compound 1 μM, relative to inhibitory activity of 100 μM Nomifensine as 100%; for inhibition at 1 µM: CHO, read-out: inhibitory rate (%)
T3 construct: expressed in transfected cells
Procedure, shortened: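 CHO-K1 cells stably expressing human dopamine transporter, exposed to compound at 10 μM or 1 μM in HEPES-buffered saline with 0.5% BSA. [3H]-dopamine uptake measured over 60 min by scintillation counting. Activity expressed relative to 100 μM nomifensine as 100%.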

[4] = compound 1 μM, read-out: inhibitory rate (%)
[5] = read-out: inhibitory rate (%), compound 1 μM

T3 sequence (Q01959 whole entry): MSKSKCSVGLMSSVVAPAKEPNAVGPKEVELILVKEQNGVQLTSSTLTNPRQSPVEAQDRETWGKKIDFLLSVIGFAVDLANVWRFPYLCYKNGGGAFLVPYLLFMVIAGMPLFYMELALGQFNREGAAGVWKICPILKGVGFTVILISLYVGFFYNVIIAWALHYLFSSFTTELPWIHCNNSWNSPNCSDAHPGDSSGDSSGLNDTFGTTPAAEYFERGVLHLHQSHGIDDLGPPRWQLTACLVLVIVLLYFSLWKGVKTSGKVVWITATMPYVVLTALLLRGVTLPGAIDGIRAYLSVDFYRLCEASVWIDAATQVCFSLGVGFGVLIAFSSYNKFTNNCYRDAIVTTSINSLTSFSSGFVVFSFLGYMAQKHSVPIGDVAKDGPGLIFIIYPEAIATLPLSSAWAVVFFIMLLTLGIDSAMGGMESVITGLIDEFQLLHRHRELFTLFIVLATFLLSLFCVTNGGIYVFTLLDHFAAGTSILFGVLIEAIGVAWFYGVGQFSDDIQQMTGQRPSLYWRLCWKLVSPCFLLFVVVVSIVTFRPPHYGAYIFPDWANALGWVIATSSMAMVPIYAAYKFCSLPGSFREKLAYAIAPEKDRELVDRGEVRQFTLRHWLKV
T1 sequence (P31645 whole entry): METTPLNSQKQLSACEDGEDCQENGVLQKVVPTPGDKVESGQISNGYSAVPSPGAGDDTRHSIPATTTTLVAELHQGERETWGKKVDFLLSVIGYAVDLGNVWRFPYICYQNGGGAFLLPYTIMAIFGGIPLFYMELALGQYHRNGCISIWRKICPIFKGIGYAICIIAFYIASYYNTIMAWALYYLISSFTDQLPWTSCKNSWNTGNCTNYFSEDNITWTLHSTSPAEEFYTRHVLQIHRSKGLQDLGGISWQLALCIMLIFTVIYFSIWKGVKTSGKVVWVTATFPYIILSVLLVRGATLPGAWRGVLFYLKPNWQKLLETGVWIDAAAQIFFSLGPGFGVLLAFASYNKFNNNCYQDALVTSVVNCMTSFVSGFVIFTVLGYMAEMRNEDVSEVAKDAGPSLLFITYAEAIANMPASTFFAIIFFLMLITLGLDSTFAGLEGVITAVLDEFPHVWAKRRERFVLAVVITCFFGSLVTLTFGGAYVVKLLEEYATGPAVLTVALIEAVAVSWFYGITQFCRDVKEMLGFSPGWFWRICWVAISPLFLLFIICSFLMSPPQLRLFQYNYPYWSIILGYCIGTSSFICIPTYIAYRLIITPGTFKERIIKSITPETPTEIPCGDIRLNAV
T2 sequence (P23975 whole entry): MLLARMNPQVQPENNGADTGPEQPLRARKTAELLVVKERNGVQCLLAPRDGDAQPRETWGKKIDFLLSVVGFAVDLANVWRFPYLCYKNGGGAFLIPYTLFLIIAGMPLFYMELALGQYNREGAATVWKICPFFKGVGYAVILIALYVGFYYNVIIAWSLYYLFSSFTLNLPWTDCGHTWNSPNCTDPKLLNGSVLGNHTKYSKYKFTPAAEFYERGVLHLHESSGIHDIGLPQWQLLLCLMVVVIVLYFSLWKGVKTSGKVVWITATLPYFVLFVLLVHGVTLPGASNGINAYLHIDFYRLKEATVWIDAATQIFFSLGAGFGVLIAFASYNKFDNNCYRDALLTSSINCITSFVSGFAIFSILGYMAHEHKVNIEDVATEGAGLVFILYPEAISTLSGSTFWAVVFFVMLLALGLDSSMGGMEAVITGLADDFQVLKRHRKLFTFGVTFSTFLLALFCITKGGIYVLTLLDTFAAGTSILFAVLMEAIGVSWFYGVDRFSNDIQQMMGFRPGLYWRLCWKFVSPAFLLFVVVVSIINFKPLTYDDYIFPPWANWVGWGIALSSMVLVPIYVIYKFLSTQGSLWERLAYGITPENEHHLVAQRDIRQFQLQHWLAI

Compound: OCCC[C@@H]1CNCCO[C@H]1c1ccc(Cl)c(Cl)c1 [Example 212, 3-[(6R,7R)-7-(3,4-dichlorophenyl)-1,4-oxazepan-6-yl]propan-1-ol monohydrochloride]
- inhibition at 1 µM [1]: 98%
- inhibition at 1 µM [2, 4]: 103%
- inhibition at 1 µM [3]: 94%

Compound: CC(=O)[C@@H]1CNCCO[C@H]1c1ccc(Cl)c(Cl)c1 [Example 216, 1-[(6R,7R)-7-(3,4-dichlorophenyl)-1,4-oxazepan-6-yl]ethanone monohydrochloride]
- inhibition at 1 µM [1]: 42%
- inhibition at 1 µM [2, 4]: 94%
- inhibition at 1 µM [3]: 3%

Compound: CC(=O)N[C@H]1CNCCO[C@@H]1c1ccc(Cl)c(Cl)c1 [Example 240, N-[(6S,7R)-7-(3,4-dichlorophenyl)-1,4-oxazepan-6-yl]acetamide monohydrochloride]
- inhibition at 1 µM [1]: 94%
- inhibition at 1 µM [2, 4]: 105%
- inhibition at 1 µM [3]: 60%

Compound: NC(=O)N[C@@H]1CNCCO[C@H]1c1ccc(Cl)c(Cl)c1 [Example 262, 1-[(6R,7S)-7-(3,4-dichlorophenyl)-1,4-oxazepan-6-yl]urea monohydrochloride]
- inhibition at 1 µM [1]: 71%
- inhibition at 1 µM [2, 4]: 98%
- inhibition at 1 µM [3]: 52%

Compound: CS(=O)(=O)N[C@@H]1CNCCO[C@H]1c1ccc(Cl)c(Cl)c1 [Example 265, N-[(6R,7S)-7-(3,4-dichlorophenyl)-1,4-oxazepan-6-yl]methanesulfonamide monohydrochloride]
- inhibition at 1 µM [1]: 79%
- inhibition at 1 µM [2, 4]: 102%
- inhibition at 1 µM [3]: 72%

Compound: CS(=O)(=O)N[C@H]1CNCCO[C@@H]1c1ccc(Cl)c(Cl)c1 [Example 266, N-[(6S,7R)-7-(3,4-dichlorophenyl)-1,4-oxazepan-yl]methanesulfonamide monohydrochloride]
- inhibition at 1 µM [1]: 82%
- inhibition at 1 µM [2, 4]: 103%
- inhibition at 1 µM [3]: 76%

Compound: O=C1CN([C@@H]2CNCCO[C@H]2c2ccc(Cl)c(Cl)c2)C(=O)N1 [Example 276, 1-[(6R,7S)-7-(3,4-dichlorophenyl)-1,4-oxazepan-6-yl]imidazolidine-2,4-dione monohydrochloride]
- inhibition at 1 µM [1]: 87%
- inhibition at 1 µM [2, 4]: 103%
- inhibition at 1 µM [3]: 94%

Compound: OC[C@@H]1CNCCO[C@H]1c1ccc(F)c(Cl)c1 [Example 284, [(6S,7R)-7-(3-chloro-4-fluorophenyl)-1,4-oxazepan-6-yl]methanol monofumarate]
- inhibition at 1 µM [1]: 34%
- inhibition at 1 µM [2, 5]: 96%
- inhibition at 1 µM [3]: 11%

Compound: OC[C@H]1CNCCO[C@@H]1c1ccc(F)c(Cl)c1 [Example 285, [(6R,7S)-7-(3-chloro-4-fluorophenyl)-1,4-oxazepan-6-yl]methanol 0.5 fumarate]
- inhibition at 1 µM [1]: 79%
- inhibition at 1 µM [2, 4]: 94%
- inhibition at 1 µM [3]: 19%

Compound: OC[C@@H]1CNCCO[C@H]1c1ccc(Cl)c(F)c1 [Example 301, [(6S,7R)-7-(4-chloro-3-fluorophenyl)-1,4-oxazepan-6-yl]methanol monohydrochloride]
- inhibition at 1 µM [1]: 52%
- inhibition at 1 µM [2, 4]: 100%
- inhibition at 1 µM [3]: 10%

Compound: OC[C@H]1CNCCO[C@@H]1c1ccc(Cl)c(F)c1 [Example 302, [(6R,7S)-7-(4-chloro-3-fluorophenyl)-1,4-oxazepan-6-yl]methanol monohydrochloride]
- inhibition at 1 µM [1]: 73%
- inhibition at 1 µM [2, 4]: 98%
- inhibition at 1 µM [3]: 12%

Compound: O=C(CC(F)(F)F)NC[C@@H]1CNCCO[C@H]1c1ccc(Cl)c(F)c1 [Example 314, N-{[(6S,7R)-7-(4-chloro-3-fluorophenyl)-1,4-oxazepan-6-yl]methyl}-3,3,3-trifluoropropanamide monohydrochloride]
- inhibition at 1 µM [1]: 49%
- inhibition at 1 µM [2, 4]: 104%
- inhibition at 1 µM [3]: 11%

Compound: O=C(CO)NC[C@@H]1CNCCO[C@H]1c1ccc(Cl)c(F)c1 [Example 315, N-{[(6S,7R)-7-(4-chloro-3-fluorophenyl)-1,4-oxazepan-6-yl]methyl}-2-hydroxyacetamide monohydrochloride]
- inhibition at 1 µM [1]: 43%
- inhibition at 1 µM [2, 4]: 105%
- inhibition at 1 µM [3]: 13%

Compound: O=C(NC[C@@H]1CNCCO[C@H]1c1ccc(Cl)c(F)c1)c1cc(-c2noc(=O)[nH]2)ccc1F [Example 357, N-{[(6S,7R)-7-(4-chloro-3-fluorophenyl)-1,4-oxazepan-6-yl]methyl}-2-fluoro-5-(5-oxo-4,5-dihydro-1,2,4-oxadiazol-3-yl)benzamide monohydrochloride]
- inhibition at 1 µM [1]: 102%
- inhibition at 1 µM [2, 4]: 103%
- inhibition at 1 µM [3]: 19%

Compound: O=C(NC[C@@H]1CNCCO[C@H]1c1ccc(Cl)c(F)c1)c1ccc[nH]c1=O [Example 367, N-{[(6S,7R)-7-(4-chloro-3-fluorophenyl)-1,4-oxazepan-6-yl]methyl}-2-oxo-1,2-dihydropyridine-3-carboxamide monohydrochloride]
- inhibition at 1 µM [1]: 99%
- inhibition at 1 µM [2, 4]: 103%
- inhibition at 1 µM [3]: 57%

Compound: O=C1NCCCN1C[C@@H]1CNCCO[C@H]1c1ccc(Cl)c(F)c1 [Example 372, 1-{[(6S,7R)-7-(4-chloro-3-fluorophenyl)-1,4-oxazepan-6-yl]methyl}tetrahydropyrimidin-2(1H)-one monohydrochloride]
- inhibition at 1 µM [1]: 98%
- inhibition at 1 µM [2, 5]: 103%
- inhibition at 1 µM [3]: 97%

Compound: O=C1CCCCN1C[C@@H]1CNCCO[C@H]1c1ccc(Cl)c(F)c1 [Example 376, 1-{[(6S,7R)-7-(4-chloro-3-fluorophenyl)-1,4-oxazepan-6-yl]methyl}piperidin-2-one monohydrochloride]
- inhibition at 1 µM [1]: 98%
- inhibition at 1 µM [2, 4]: 102%
- inhibition at 1 µM [3]: 89%

Compound: O=c1[nH]nc(-c2cccn(C[C@@H]3CNCCO[C@H]3c3ccc(Cl)c(F)c3)c2=O)[nH]1 [Example 379, 1-{[(6S,7R)-7-(4-chloro-3-fluorophenyl)-1,4-oxazepan-6-yl]methyl}-3-(5-oxo-4,5-dihydro-1H-1,2,4-triazol-3-yl)pyridin-2(1H)-one monohydrochloride]
- inhibition at 1 µM [1]: 95%
- inhibition at 1 µM [2, 4]: 102%
- inhibition at 1 µM [3]: 64%

Compound: Cc1cc(C2OCCNCC2CO)ccc1Cl (stereo not drawn) [Example 401, [(6R*,7S*)-7-(4-chloro-3-methylphenyl)-1,4-oxazepan-6-yl]methanol monohydrochloride (retention time short)]
- inhibition at 1 µM [1]: 75%
- inhibition at 1 µM [2, 4]: 100%
- inhibition at 1 µM [3]: 17%

Compound: Cc1cc(C2OCCNCC2CO)ccc1Cl (stereo not drawn) [Example 402, [(6R*,7S*)-7-(4-chloro-3-methylphenyl)-1,4-oxazepan-6-yl]methanol monohydrochloride (retention time long)]
- inhibitory rate (%) [1]: 91%
- inhibitory rate (%) ([2]; compound 1 μM): 98%
- inhibitory rate (%) [3]: 19%

Compound: Cc1ccc(C2OCCNCC2CO)cc1Cl (stereo not drawn) [Example 405, [(6R*,7S*)-7-(3-chloro-4-methylphenyl)-1,4-oxazepan-6-yl]methanol monohydrochloride (retention time short)]
- inhibition at 1 µM [1]: 71%
- inhibition at 1 µM [2, 4]: 100%
- inhibition at 1 µM [3]: 12%

Compound: Cc1ccc(C2OCCNCC2CO)cc1Cl (stereo not drawn) [Example 406, [(6R*,7S*)-7-(3-chloro-4-methylphenyl)-1,4-oxazepan-6-yl]methanol monohydrochloride (retention time long)]
- inhibitory rate (%) [1]: 82%
- inhibitory rate (%) ([2]; compound 1 μM): 98%
- inhibitory rate (%) [3]: 22%

Compound: OCCOC[C@@]1(c2ccc(Cl)c(Cl)c2)CCNCCO1 [Example 416, 2-{[(7S)-7-(3,4-dichlorophenyl)-1,4-oxazepan-7-yl]methoxy}ethanol monohydrochloride]
- inhibition at 1 µM [1]: 85%
- inhibition at 1 µM [2, 4]: 100%
- inhibition at 1 µM [3]: 18%

Compound: OCC(O)COC[C@@]1(c2ccc(Cl)c(Cl)c2)CCNCCO1 (stereo partly drawn) [Example 417, 3-{[(7S)-7-(3,4-dichlorophenyl)-1,4-oxazepan-7-yl]methoxy}propane-1,2-diol monohydrochloride]
- inhibition at 1 µM [1]: 92%
- inhibition at 1 µM [2, 4]: 102%
- inhibition at 1 µM [3]: 17%

Compound: CS(=O)(=O)NC[C@@]1(c2ccc(Cl)c(Cl)c2)CCNCCO1 [Example 432, N-{[(7S)-7-(3,4-dichlorophenyl)-1,4-oxazepan-7-yl]methyl}methanesulfonamide monohydrochloride]
- inhibition at 1 µM [1]: 84%
- inhibition at 1 µM [2, 4]: 97%
- inhibition at 1 µM [3]: 10%

Compound: O=C1CNC(=O)N1C[C@]1(c2ccc(Cl)c(Cl)c2)CCNCCO1 [Example 438, 3-{[(7R)-7-(3,4-dichlorophenyl)-1,4-oxazepan-7-yl]methyl}imidazolidine-2,4-dione monohydrochloride]
- inhibition at 1 µM [1]: 81%
- inhibition at 1 µM [2, 4]: 97%
- inhibition at 1 µM [3]: 6%

Compound: O=C1CNC(=O)N1C[C@@]1(c2ccc(Cl)c(Cl)c2)CCNCCO1 [Example 439, 3-{[(7S)-7-(3,4-dichlorophenyl)-1,4-oxazepan-7-yl]methyl}imidazolidine-2,4-dione monohydrochloride]
- inhibition at 1 µM [1]: 74%
- inhibition at 1 µM [2, 4]: 98%
- inhibition at 1 µM [3]: 7%
